Data as given in US20120003270A1, “6-SUBSTITUTED ISOFLAVONOID COMPOUNDS AND USES THEREOF” (priority 2008, published 2012).

Columns and labels:
NFκB = NFκB promoter activity in transfected THP-1 cells (beta-lactamase reporter); assay type: cell-based, human; details: for Inflammatory index: TNFα 7.5 ng/ml, 5 h
Description: The assay utilizes a genetically modified THP-1 cell line and GeneBLAzer® beta-lactamase technology (Invitrogen Corp). The human THP-1 monocyte/macrophages contain a stably-transfected beta-lactamase reporter gene under control of the NFkB response element. They respond to stimulation with TNFα, which leads to activation of the NFkB signaling pathway. Co-incubation of cells with TNFα and test material allows quantitative determination of the ability of test material to inhibit TNFα-stimulated beta-lactamase production. An inflammatory index was calculated as the ratio of beta-lactamase product to beta-lactamase substrate.
In brief, genetically modified THP-1 cells were seeded into wells of a 96-well plate (50×10^3 cells/well) in the presence of RPMI 1640 medium (70 μl). TNFα was added to each well (10 μl) to give a final concentration of 7.5 ng/ml. Dialyzed bovine serum was added (10 μl). Test compounds were dissolved in DMSO (10 μL) (5 wells). Each plate contained a no-cell control (4 wells), a no-serum control (4 wells) and two serum controls. Plates were incubated for 5 h at 37° C. to allow for NFkB-stimulated beta-lactamase production. LiveBLAzer™ FRET B/G Substrate (CCF4-AM) substrate was then added to the assay. CCF4-AM is a Förster resonance energy transfer (FRET) based substrate for beta-lactamase developed by Invitrogen Corp. Once CCFA-AM enters a cell, it is converted to negatively charged CCF4 by endogenous esterases. Excitation of this substrate at 409 nm leads to efficient FRET between the coumarin and fluorescein moieties, resulting in a green fluorescence detectable at 530 nm. The presence of beta-lactamase leads to cleavage of CCF4 and results in a loss of FRET, resulting in a robust blue fluorescent signal detectable at 460 nm. Thus, activity of beta-lactamase (a marker of NFkB-promoter activity) is measured as a product to substrate ratio (blue/green fluorescence ratio: 460 nm/530 nm).

TXA2 = TXA2 synthesis in RAW 264.7 (ELISA); assay type: cell-based, mouse; details: LPS 50 ng/ml, 16 hrs
Description: The mouse macrophage cell line RAW 264.7 was cultured in DMEM supplemented with foetal calf serum (FCS), 2 mM glutamine and 50 U/ml penicillin/streptomycin. Cells were treated with either test compounds (in 0.025% DMSO) or vehicle alone, and added one hour before 50 ng/ml LPS. After incubation for 16 hrs, culture media was collected for PGE2 or TXB2 measurement by ELISA (Cayman Chemical), and TNFα measurement using an ELISA (Becton Dickinson).

[1] = system: low density lipoprotein (LDL); test: Cu2+-induced oxidation of LDL (FOX assay); assay type: biochemical; parameters: lipid peroxide formation: unit not given here
Description: Blood was collected by venipuncture and plasma separated by centrifugation. LDL was then isolated from plasma using a 4-step sodium chloride density gradient and ultracentrifuged at 200,000 g for 20 hours at 4° C. The collect LDL was purified by passage through gel filtration PD10 column to remove excess salt and EDTA, and stored in the dark at 4° C. to prevent auto-oxidation and used with two weeks of isolation. The LDL cholesterol content was measure using a standard enzymatic method and protein concentration determined by the Lowry method using BSA as the standard.
On the day of each experiment a 2 mL aliquot of LDL was passed through a second PD10 column and diluted with chelex treated PBS (100 mM) to give a standard protein concentration of 0.1 mg/mL, ie final concentration per reaction. Oxidation reactions were initiated by the addition of freshly prepared Cu^2+ solution, such that the final concentration of CuSO4 was 5 μM. […] The extent of lipoprotein oxidation was determined by measuring the formation of lipid-peroxides on aliquots removed every 30-minute over a 3-hour period. Peroxides were determined at each time point by the ferrous oxidation-xylenol orange (FOX) assay using standard hydrogen peroxide curve (5 to 200 μM). Compound (1) was examined in at least two separate experiments performed on separate days.

rabbit kidney (RK-13) = test: Toxicity in normal cells (MTT), RK-13; assay type: cell-based; details: Oryctolagus cuniculus, RK-13, 120 h, 5 days, top concentration 150 μM, read-out: Normal cell viability IC50
Description: Human neonatal fibroblast foreskin (NFF—a gift from Dr. Peter Parsons, Queensland Institute of Medical Research) or rabbit kidney (RK-13—a gift from Prof. Miller Whalley, Macquarie University) cells were seeded into 96 well plates and cultured in RPMI supplemented with 10% FCS (CSL, Australia), penicillin (100 U/ml), streptomycin ([…]), L-glutamine (2 mM) and sodium bicarbonate (1.2 g/L) at 37° C. and 5% CO2 for 24 hours until cells had attached and entered log phase of growth. Test compounds were added in serial two-fold dilutions from 150 μM in triplicate and incubated for a further 5 days. MTT was then added to each well, incubated for 3 hours at 37° C., after which the medium was tipped off. Following the addition of DMSO, the absorbance for each well was read on a plate reader. The assays were repeated at least twice.

**Q.** Which results are given for CN(C)Cc1cc2c(cc1O)OCC(c1ccc(O)cc1)=C2 [Compound (1)]?
**A.** Inflammatory index (NFκB; 10 μM, vehicle 8.92 ± 0.22): 9.12 ± 0.26; Inflammatory index (NFκB; 30 μM, vehicle 11.56 ± 0.49): 10.05 ± 0.36; Inflammatory index (NFκB; 100 μM, vehicle 9.48 ± 0.14): 2.75 ± 0.11; Effect on promoter activity of NFκB (in words) (NFκB; THP-1 cells, TNFα-stimulated): significantly reduced the promoter activity of NFκB at 10 μM and 100 μM; TXB2 (TXA2; 1 μM): 1333.17 ± 121.78 pg/mL; TXB2 (TXA2; 10 μM): 1149.14 ± 480.27 pg/mL; lipid peroxide formation ([1]; Compound (1) 100 μM + Cu++ 5 μM, no LDL, 0 min): 10.13 ± 2.82; lipid peroxide formation ([1]; Compound (1) 100 μM + Cu++ 5 μM, no LDL, 30 min): 32.09 ± 11.15; lipid peroxide formation ([1]; Compound (1) 100 μM + Cu++ 5 μM, no LDL, 60 min): 46.21 ± 20.68; lipid peroxide formation ([1]; Compound (1) 100 μM + Cu++ 5 μM, no LDL, 90 min): 58.19 ± 28.98; lipid peroxide formation ([1]; Compound (1) 100 μM + Cu++ 5 μM, no LDL, 120 min): 69.46 ± 35.33; lipid peroxide formation ([1]; Compound (1) 100 μM + Cu++ 5 μM, no LDL, 180 min): 76.60 ± 40.17; IC50 ([1]; LDL 0.1 mg/mL, CuSO4 5 μM, read-out: IC50, concentration at which 50% of the LDL oxidation was inhibited): 580 nM; lipid peroxide formation ([1]; LDL 0.1 mg/ml + compound (1) 0.1 μM + Cu++ 5 μM, 0 min): 11.54 ± 1.96; lipid peroxide formation ([1]; LDL 0.1 mg/ml + compound (1) 0.1 μM + Cu++ 5 μM, 30 min): 14.50 ± 0.28; lipid peroxide formation ([1]; LDL 0.1 mg/ml + compound (1) 0.1 μM + Cu++ 5 μM, 60 min): 26.86 ± 0.65; lipid peroxide formation ([1]; LDL 0.1 mg/ml + compound (1) 0.1 μM + Cu++ 5 μM, 90 min): 89.43 ± 17.03; lipid peroxide formation ([1]; LDL 0.1 mg/ml + compound (1) 0.1 μM + Cu++ 5 μM, 120 min): 161.78 ± 1.44; lipid peroxide formation ([1]; LDL 0.1 mg/ml + compound (1) 0.1 μM + Cu++ 5 μM, 180 min): 193.20 ± 25.05; lipid peroxide formation ([1]; LDL 0.1 mg/ml + compound (1) 1.0 μM + Cu++ 5 μM, 0 min): 11.31 ± 1.95; lipid peroxide formation ([1]; LDL 0.1 mg/ml + compound (1) 1.0 μM + Cu++ 5 μM, 30 min): 12.83 ± 2.28; lipid peroxide formation ([1]; LDL 0.1 mg/ml + compound (1) 1.0 μM + Cu++ 5 μM, 60 min): 13.11 ± 2.70; lipid peroxide formation ([1]; LDL 0.1 mg/ml + compound (1) 1.0 μM + Cu++ 5 μM, 90 min): 14.78 ± 1.06; lipid peroxide formation ([1]; LDL 0.1 mg/ml + compound (1) 1.0 μM + Cu++ 5 μM, 120 min): 20.39 ± 2.95; lipid peroxide formation ([1]; LDL 0.1 mg/ml + compound (1) 1.0 μM + Cu++ 5 μM, 180 min): 102.30 ± 37.30; lipid peroxide formation ([1]; LDL 0.1 mg/ml + compound (1) 10 μM + Cu++ 5 μM, 0 min): 11.54 ± 1.96; lipid peroxide formation ([1]; LDL 0.1 mg/ml + compound (1) 10 μM + Cu++ 5 μM, 30 min): 16.77 ± 2.55; lipid peroxide formation ([1]; LDL 0.1 mg/ml + compound (1) 10 μM + Cu++ 5 μM, 60 min): 19.56 ± 4.55; lipid peroxide formation ([1]; LDL 0.1 mg/ml + compound (1) 10 μM + Cu++ 5 μM, 90 min): 20.84 ± 5.30; lipid peroxide formation ([1]; LDL 0.1 mg/ml + compound (1) 10 μM + Cu++ 5 μM, 120 min): 22.80 ± 3.39; lipid peroxide formation ([1]; LDL 0.1 mg/ml + compound (1) 10 μM + Cu++ 5 μM, 180 min): 20.30 ± 4.97; lipid peroxide formation ([1]; LDL 0.1 mg/ml + compound (1) 100 μM + Cu++ 5 μM, 0 min): 13.83 ± 1.77; lipid peroxide formation ([1]; LDL 0.1 mg/ml + compound (1) 100 μM + Cu++ 5 μM, 30 min): 29.71 ± 6.85; lipid peroxide formation ([1]; LDL 0.1 mg/ml + compound (1) 100 μM + Cu++ 5 μM, 60 min): 39.57 ± 10.67; lipid peroxide formation ([1]; LDL 0.1 mg/ml + compound (1) 100 μM + Cu++ 5 μM, 90 min): 78.85 ± 33.54; lipid peroxide formation ([1]; LDL 0.1 mg/ml + compound (1) 100 μM + Cu++ 5 μM, 120 min): 54.24 ± 9.58; lipid peroxide formation ([1]; LDL 0.1 mg/ml + compound (1) 100 μM + Cu++ 5 μM, 180 min): 62.50 ± 19.58; IC50 (rabbit kidney (RK-13)): > 150000 nM
